The text below walks through data of publication PMC9940851, “Seleno Containing Compounds as Potent and Selective Antifungal Agents” (ACS Infectious Diseases, 2022).

In experiment [1] the target is T1, MpaCA (Malassezia pachydermatis, UniProt A0A0M8MPA4).
T1 construct: gene Malapachy_3798
T1 sequence (A0A0M8MPA4 1-242): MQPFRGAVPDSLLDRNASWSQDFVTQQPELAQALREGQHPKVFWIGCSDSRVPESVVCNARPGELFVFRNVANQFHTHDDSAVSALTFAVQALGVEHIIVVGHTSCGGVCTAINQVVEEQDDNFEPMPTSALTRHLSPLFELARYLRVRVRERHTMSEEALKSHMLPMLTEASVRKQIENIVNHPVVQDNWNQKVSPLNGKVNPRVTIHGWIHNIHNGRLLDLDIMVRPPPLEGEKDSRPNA
Put plainly: stopped-flow CO2 hydrase assay. Format: biochemical.

Experiment [2] has as its target T2, MgCA (Malassezia globosa, UniProt A8Q1N3).
T2 construct: gene MGL_1814
T2 sequence (A8Q1N3 1-241): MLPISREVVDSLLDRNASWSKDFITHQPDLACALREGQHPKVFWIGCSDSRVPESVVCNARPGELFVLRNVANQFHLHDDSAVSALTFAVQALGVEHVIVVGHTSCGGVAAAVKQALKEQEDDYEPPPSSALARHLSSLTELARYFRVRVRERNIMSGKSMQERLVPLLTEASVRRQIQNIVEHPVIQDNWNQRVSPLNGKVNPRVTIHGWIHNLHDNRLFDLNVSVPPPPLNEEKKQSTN
Kind of experiment: biochemical. Set-up: stopped-flow CO2 hydration assay, phenol red absorbance at 557 nm, 15 min preincubation, Cheng-Prusoff KI. The procedure: Enzyme concentrations ranged between 5 and 12 nM. […] The presence of the sulfonamide moiety (i.e., either primary/secondary) within our scaffolds prompted us to investigate whether the compounds listed in this study were endowed with modulation features against the enzymatic metalloenzyme carbonic anhydrases (CAs, EC 4.2.1.1) expressed in Malassezia spp. of interest such as M. pachydermatis (MpaCA), M. globosa (MgCA), and M. restricta (MreCA). […] The obtained activities in Table 3 were all reported as KI values.

Experiment [3] relates to C. albicans. Kind of experiment: microbe, parasite or virus in culture. Also on record: broth microdilution MIC, M. pachydermatis and Candida, 35 °C. The settings on record: Candida albicans. Put shortly: (§1)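 Yeast inocula in 10 mM phosphate buffer pH 7, adjusted to 0.5 McFarland (1–5 × 10^6 cells/mL), mixed with compound at 0.01–256 μg/mL. Incubation 24–48 h at 35 °C. Malassezia precultured in modified RPMI and Leeming–Notman agar (M. globosa at 33 °C).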

Experiment [4] relates to T3, M. pachydermatis DSMZ 6172.
T3 construct: DSMZ 6172 (CDC 16334)
Kind of experiment: microbe, parasite or virus in culture. Set-up: broth microdilution MIC, M. pachydermatis and Candida, 35 °C. Particulars: Malassezia pachydermatis, DSMZ6172.

The test system of experiment [5] is T4, C. glabrata DSMZ 11226.
T4 construct: DSMZ 11226 (ATCC 90030)
Put plainly: microbe, parasite or virus in culture. Also on record: broth microdilution MIC, M. pachydermatis and Candida, 35 °C. Particulars: Nakaseomyces glabratus, DSMZ11226. Put shortly: as §1

Experiment [6] concerns T5, ATCC M. furfur 14521.
T5 construct: ATCC 14521
Put plainly: microbe, parasite or virus in culture. The settings on record: Malassezia furfur. An outline of the steps: as §1

In experiment [7] the test system is T6, M. globosa ATCC MYA 4612.
T6 construct: ATCC MYA 4612
Kind of experiment: microbe, parasite or virus in culture. Particulars: Malassezia globosa. An outline of the steps: as §1

For the compound `NS(=O)(=O)c1ccc(NC(=S)Nc2ccccc2F)cc1` [14b], the Ki (usually a dissociation constant, usually derived from enzyme kinetics or from competition with a known ligand) amounted to 0.488 µM in experiment [1] and 5.49 µM in experiment [2]. Also, the MIC in experiment [3], in experiment [4], in experiment [5], in experiment [6] and in experiment [7] was over 256 µg/mL in each case.

For `NS(=O)(=O)c1ccc(NC(=O)Nc2ccccc2F)cc1` [14a], the inhibition constant (Ki) in experiment [1] stood at 0.845 µM; in experiment [2], 6.74 µM. Moreover, the MIC in experiment [3], in experiment [4], in experiment [5], in experiment [6] and in experiment [7] was over 256 µg/mL each time.
